Assay results: article PMC9668969 (Nature Communications, 2022)
Where “and” joins values, the source holds several entries; their conditions need not be identical. Identical values can stand only once.

Tested on: WT ELIC
Assay: Fluorescence stopped-flow liposomal Tl+ flux assay, symmetric liposomes
Assay type: biochemical, Erwinia chrysanthemi
Conditions: for Avg (stopped-flow fluorescence quenching rate): average of experiments; for Rate (stopped-flow fluorescence quenching rate): single experiments
Experimental: The fluorescence sequential-mixing stopped-flow liposomal flux measurements were carried using an SX20 stopped-flow spectrofluorometer (Applied Photophysics) and Pro-Data SX software[13],[30]. 7.5 mg of the respective lipid mixture (POPC, 1:1 POPC: POPE, 1:1 POPC:POPG, 3:1 POPC:POPE, 3:1 POPC:POPG, 2:1:1 POPC:POPE:POPG) was dried in a glass vial to a thin film under a constant stream of N2. The lipids were then further dried under vacuum in a desiccator overnight. The following day the lipids were hydrated in 500 µl of reconstitution buffer (100 mM NaNO3, 10 mM HEPES, pH 7) (Buffer R), 250 µl of 75 mM 8-Aminonaphthalene-1,3,6-Trisulfonic Acid (ANTS, ThermoFisher Scientific) in buffer R, and doped with ~18 mg of CHAPS (Anatrace). The mixture was vortexed and then sonicated with heat until completely solubilized. Following the sonication, the solution was brought to RT then 3.5 µl of 6.7 mg/ml ELIC in Buffer A with 0.02% DDM was added (3 µg per mg of lipid). This combined solution was incubated at RT for 30 min, followed by the addition of 1 ml of 1:1 v/v SM-2 BioBeads in Buffer R and an additional 250 µl of 75 mM ANTS in Buffer R. This mixture was incubated at RT for 2.5 hr with gentle mixing. The liposome suspension was then extruded with an Avanti mini-extruder and 0.1 µm membrane (30×). The extruded liposomes were stored at 13 °C overnight with gentle rotation. The next day, the liposomes were diluted to 2.5 mL using assay buffer (140 mM NaNO3, 10 mM HEPES, pH 7) (Stopped-flow Buffer A), loaded into a PD-10 desalting column (Cytiva), eluted with 3 mL of Stopped-flow Buffer A and subsequently diluted 5-fold with Stopped-flow Buffer A.
Using propylamine as the agonist, the assay and analysis was carried out as previously described[13],[30]. ELIC-containing liposomes were first mixed 1:1 with Buffer A containing 2× the concentration of propylamine. After a variable delay of 10 ms to 25 s, the sample was then mixed 1:1 with a quenching buffer (90 mM NaNO3, 50 mM TlNO3, 10 mM HEPES, pH 7), and ANTS fluorescence (ex. 360 nm, fluorescence above 420 nm) was recorded for 1 s. For each delay time, 5 repeat measurements were obtained. The data were collected using Applied Photophysics Pro-Data SX software. The fluorescence quenching traces were fit to a stretched exponential (Eq. 2a) and the rate of Tl^+ influx was determined at 2 ms (Eq. 2b).2a Ft=F∞+F0−F∞⋅e^−t/τ^β 2b kt=β/τ⋅2ms/τ^(β−1) where Ft, F∞, F0 are the fluorescence at time t, final fluorescence and initial fluorescence. τ is the time constant, β the stretched exponential factor, and kt the calculated rate of Tl^+ influx at 2 ms. The time course of desensitization was also fit to a double exponential and a weighted time constant was calculated as was done for the patch-clamp data using Origin 2019b. All replicates were taken from independent samples.

[1] = WT in PC liposomes, 0.3 mM PA, delay time 0
[2] = WT in PC liposomes, 1 mM PA, delay time 0

## CCCN [propylamine]
WT in 2:1:1 PC:PE:PG liposomes, 3 mM PA, delay time 5
  Avg (stopped-flow fluorescence quenching rate): 145.791
WT in 2:1:1 PC:PE:PG liposomes, 3 mM PA, delay time 10
  Avg (stopped-flow fluorescence quenching rate): 107.502
WT in 2:1:1 PC:PE:PG liposomes, 3 mM PA, delay time 25
  Avg (stopped-flow fluorescence quenching rate): 38.6642
WT in 2:1:1 PC:PE:PG liposomes, 10 mM PA, delay time 0
  Rate (stopped-flow fluorescence quenching rate): 0
WT in 2:1:1 PC:PE:PG liposomes, 10 mM PA, delay time 0.025
  Avg (stopped-flow fluorescence quenching rate): 169.086
WT in 2:1:1 PC:PE:PG liposomes, 10 mM PA, delay time 0.05
  Avg (stopped-flow fluorescence quenching rate): 180.798
WT in 2:1:1 PC:PE:PG liposomes, 10 mM PA, delay time 0.05 [sic] (between 0.25 and 1)
  Avg (stopped-flow fluorescence quenching rate): 198.043
WT in 2:1:1 PC:PE:PG liposomes, 10 mM PA, delay time 0.05 [sic] (between 0.25 and 1), listed as PA
  Rate (stopped-flow fluorescence quenching rate): 249.635 and 148.719 and 195.774
WT in 2:1:1 PC:PE:PG liposomes, 10 mM PA, delay time 0.1
  Avg (stopped-flow fluorescence quenching rate): 165.345
WT in 2:1:1 PC:PE:PG liposomes, 10 mM PA, delay time 0.25
  Avg (stopped-flow fluorescence quenching rate): 213.572
WT in 2:1:1 PC:PE:PG liposomes, 10 mM PA, delay time 0.25, listed as PA
  Rate (stopped-flow fluorescence quenching rate): 256.17 and 144.253 and 240.291
WT in 2:1:1 PC:PE:PG liposomes, 10 mM PA, delay time 1
  Avg (stopped-flow fluorescence quenching rate): 169.644
WT in 2:1:1 PC:PE:PG liposomes, 10 mM PA, delay time 1, listed as PA
  Rate (stopped-flow fluorescence quenching rate): 228.219 and 122.935 and 157.778
WT in 2:1:1 PC:PE:PG liposomes, 10 mM PA, delay time 2.5
  Avg (stopped-flow fluorescence quenching rate): 155.074
WT in 2:1:1 PC:PE:PG liposomes, 10 mM PA, delay time 5
  Avg (stopped-flow fluorescence quenching rate): 103.359
WT in 2:1:1 PC:PE:PG liposomes, 10 mM PA, delay time 10
  Avg (stopped-flow fluorescence quenching rate): 60.9022
WT in 2:1:1 PC:PE:PG liposomes, 10 mM PA, delay time 25
  Avg (stopped-flow fluorescence quenching rate): 14.6606
WT in 2:1:1 PC:PE:PG liposomes, 10 mM PA, delay time 25, listed as PA
  Rate (stopped-flow fluorescence quenching rate): 13.7363 and 15.821 and 14.4245
WT in 2:1:1 PC:PE:PG liposomes, 30 mM PA, delay time 0
  Rate (stopped-flow fluorescence quenching rate): 0
WT in 2:1:1 PC:PE:PG liposomes, 30 mM PA, delay time 0.025
  Avg (stopped-flow fluorescence quenching rate): 74.8381
WT in 2:1:1 PC:PE:PG liposomes, 30 mM PA, delay time 0.05
  Avg (stopped-flow fluorescence quenching rate): 63.4545
WT in 2:1:1 PC:PE:PG liposomes, 30 mM PA, delay time 0.1
  Avg (stopped-flow fluorescence quenching rate): 63.448
WT in 2:1:1 PC:PE:PG liposomes, 30 mM PA, delay time 0.25
  Avg (stopped-flow fluorescence quenching rate): 66.7765
WT in 2:1:1 PC:PE:PG liposomes, 30 mM PA, delay time 0.5
  Avg (stopped-flow fluorescence quenching rate): 62.7383
WT in 2:1:1 PC:PE:PG liposomes, 30 mM PA, delay time 1
  Avg (stopped-flow fluorescence quenching rate): 67.601
WT in 2:1:1 PC:PE:PG liposomes, 30 mM PA, delay time 2.5
  Avg (stopped-flow fluorescence quenching rate): 40.183
WT in 2:1:1 PC:PE:PG liposomes, 30 mM PA, delay time 5
  Avg (stopped-flow fluorescence quenching rate): 15.7901
WT in 2:1:1 PC:PE:PG liposomes, 30 mM PA, delay time 10
  Avg (stopped-flow fluorescence quenching rate): 23.9739
WT in 2:1:1 PC:PE:PG liposomes, 30 mM PA, delay time 25
  Avg (stopped-flow fluorescence quenching rate): 10.034
WT in 2:1:1 PC:PE:PG liposomes, 30 mM PA, delay time 25, listed as PA
  Rate (stopped-flow fluorescence quenching rate): 8.132 and 11.9359
[1]
  Avg (stopped-flow fluorescence quenching rate): 0
  Rate (stopped-flow fluorescence quenching rate): 0
WT in PC liposomes, 0.3 mM PA, delay time 0.01
  Avg (stopped-flow fluorescence quenching rate): 0.08537
WT in PC liposomes, 0.3 mM PA, delay time 0.01, listed as PA
  Rate (stopped-flow fluorescence quenching rate): 0.07068 and 0.08871 and 9.67E-02
WT in PC liposomes, 0.3 mM PA, delay time 0.025
  Avg (stopped-flow fluorescence quenching rate): 0.09939
WT in PC liposomes, 0.3 mM PA, delay time 0.05
  Avg (stopped-flow fluorescence quenching rate): 0.06401
WT in PC liposomes, 0.3 mM PA, delay time 0.1
  Avg (stopped-flow fluorescence quenching rate): 0.08141
WT in PC liposomes, 0.3 mM PA, delay time 0.25
  Avg (stopped-flow fluorescence quenching rate): 0.0402
WT in PC liposomes, 0.3 mM PA, delay time 0.25, listed as PA
  Rate (stopped-flow fluorescence quenching rate): 0.04925 and 0.03838 and 0.03298
WT in PC liposomes, 0.3 mM PA, delay time 0.5
  Avg (stopped-flow fluorescence quenching rate): 0.1212
WT in PC liposomes, 0.3 mM PA, delay time 0.5, listed as PA
  Rate (stopped-flow fluorescence quenching rate): 0.0905 and 0.1754 and 0.09759
WT in PC liposomes, 0.3 mM PA, delay time 1
  Avg (stopped-flow fluorescence quenching rate): 0.07413
WT in PC liposomes, 0.3 mM PA, delay time 2.5
  Avg (stopped-flow fluorescence quenching rate): 0.08146
WT in PC liposomes, 0.3 mM PA, delay time 2.5, listed as PA
  Rate (stopped-flow fluorescence quenching rate): 0.09799 and 0.04957 and 0.09682
WT in PC liposomes, 0.3 mM PA, delay time 5
  Avg (stopped-flow fluorescence quenching rate): 0.09461
[2]
  Avg (stopped-flow fluorescence quenching rate): 0
  Rate (stopped-flow fluorescence quenching rate): 0
WT in PC liposomes, 1 mM PA, delay time 0.01
  Avg (stopped-flow fluorescence quenching rate): 0.0808
WT in PC liposomes, 1 mM PA, delay time 0.01, listed as PA
  Rate (stopped-flow fluorescence quenching rate): 0.07542 and 0.09146 and 0.07551
WT in PC liposomes, 1 mM PA, delay time 0.025
  Avg (stopped-flow fluorescence quenching rate): 0.1635
WT in PC liposomes, 1 mM PA, delay time 0.05
  Avg (stopped-flow fluorescence quenching rate): 0.08808
WT in PC liposomes, 1 mM PA, delay time 0.05, listed as PA
  Rate (stopped-flow fluorescence quenching rate): 0.09304 and 0.1089 and 0.06236
